Measured values published in paper PMC5854708, “Grass Carp Prolactin Gene: Structural Characterization and Signal Transduction for PACAP-induced Prolactin Promoter Activity” (Scientific Reports, 2018).
Like-named read-outs stand apart in the source and are kept apart here.

Tests used:
[1] = system: grass carp PRL promoter (pPRL(−1156).Luc) in αT3-1 cells; type: cell-based, grass carp (promoter); rat (αT3-1 cells, as printed); conditions: for effect on Forskolin-induced luciferase activity: Forskolin 100 nM
Protocol: The cells were then cultured for 18 hr recovery before drug treatment. (A) Time course analysis on the effect of oPACAP38 (6–48 hrs) on grass carp PRL promoter activity in αT3-1 cells. (B) αT3-1 cells over-expressed pPRL(−1156).LUC were treated for 24 hrs with increasing doses of oPACAP38. Effects of PACAP and VIP antagonists on PACAP-induced PRL mRNA expression were also investigated. In these experiments, αT3-1 cells over-expressed pPRL(−1156).LUC were challenged with oPACAP38 (10 nM, 24 hr) in the presence or absence of (C) the PACAP antagonist PACAP6-38 (10 nM) or (D) VIP antagonist (4-Cl-D-Phe6, Leu17)VIP (“VIP-R antagonist”, 100 nM).
After 18 h recovery, the cells were incubated with respective drugs. (A) αT3-1 cells over-expressed pPRL(−1156).LUC were treated for 24 hrs with increasing doses of cpt-cAMP (1–100 μM). (B) αT3-1 cells over-expressed pPRL(−1156).LUC were treated for 24 hrs with increasing doses of Forskolin (10–1000 nM). Effects of cAMP/PKA inhibitors on PACAP-induced PRL mRNA expression were then investigated. αT3-1 cells over-expressed pPRL(−1156).LUC were challenged with oPACAP38 (10 nM, 24 hr) in the presence or absence of (C) AC inhibitor MDL12330A (10 μM) or (D) PKA blocker H89 (10 μM).
After 18 h recovery, the cells were incubated with respective drugs. The cells were treated for 24 hr with increasing doses of (A) Ca^2+ ionophore A23187 or (B) L-type VSCC activator Bay K8644. Inhibiting extracellular Ca^2+ entry on PRL mRNA expression in carp pituitary cells was examined. In this study, αT3-1 cells over-expressed pPRL(−1156).LUC were treated with (C) oPACAP38 (10 nM, 24 hrs) or (D) Forskolin (100 nM, 24 hrs) in the Ca^2+-free medium (with different doses of EGTA).
After 18 h recovery, the cells were incubated with respective drugs.

PRL gene transcription = system: PRL gene transcription; parameters: method as in PMID 18006630, PMID 18022314; conditions: human; cited from earlier work
Description: (§1) Prolactin (PRL) is a pituitary hormone with diverse function. […] In mammals, transcription of PRL gene is regulated by multiple factors. […] Furthermore, sex steroid ...

PRL promoter = system: PRL promoter; parameters: method as in 2 sources, one per row (each row's own in cited_ref): ref 2 = [2]; PMID 15731170; doi:10.1210/me.2004-0111; 2. Liu, J. C., Baker, R. E., Chow, W., Sun, C. K. & Elsholtz, H. P. Epigenetic mechanisms in the dopamine D2 receptor-dependent inhibition of the prolactin gene. Mol Endocrinol 19 , 1904–1917, doi:10. ||| ref 3 = [3]; PMID 1922085; doi:10.1210/mend-5-4-535; 3. Yan GZ Pan WT Bancroft C Thyrotropin-releasing hormone action on the prolactin promoter is mediated by the POU protein pit-1 Mol Endocrinol 1991 5 535 541 10.1210/mend-5-4-535 1922085; conditions: mammals, cited from earlier work
Description: as §1

[2] = system: PRL promoter / PRL transcript; parameters: method as in PMID 17904137; conditions: goldfish; cited from earlier work
Description: as §1

[3] = system: PRL gene expression in GH4C1 cells; conditions: cited from earlier work
Description: (§2) PACAP and vasoactive intestinal peptide (VIP) are members of the glucagon/secretin peptide family and have been reported to play roles in PRL regulation. […] In contrast to VIP, the biological actions of PACAP on ...

[4] = system: PRL secretion / PRL gene expression; conditions: mammals, cited from earlier work
Description: as §2

PAC1 receptors = conditions: cited from earlier work
Description: as §2

[5] = calmidazolium 1 μM or KN62 5 μM, oPACAP38 10 nM, 24 hrs, n = 4
[6] = calmidazolium 1 μM, W7 30 μM, W13 100 μM or KN62 5 μM, n = 4
[7] = U0126, PD169316 or SP600125, each 10 μM, n = 4
[8] = U0126, PD169316 or SP600125, each 10 μM, oPACAP38 10 nM, 24 hrs, n = 4
[9] = 24 hr, MDL12330A 10 μM or H89 10 μM, n = 4
[10] = oPACAP38 10 nM, 24 hr, MDL12330A 10 μM or H89 10 μM, n = 4
[11] = W7 30 μM or W13 100 μM, pre-treated 15 mins, PACAP 100 nM (Supplementary Fig. 4), 24 hours, n = 4
[12] = LY294002 10 μM or Wortmannin 10 nM, n = 4
[13] = 24-hr, A23187 1–100 nM or Bay K8644 1–100 nM, n = 4

Compound: C=C[C@@]1(C)CC(=O)[C@]2(O)[C@@]3(C)[C@@H](O)CCC(C)(C)[C@@H]3[C@H](O)[C@H](OC(C)=O)[C@@]2(C)O1 [Forskolin]
- effect on luciferase activity expression ([1]; 24 hrs, Forskolin 10–1000 nM, n = 4): dose-dependently increased

Compound: CO[C@H]1C[C@@H]2CC[C@@H](C)[C@@](O)(O2)C(=O)C(=O)N2CCCC[C@H]2C(=O)O[C@H]([C@H](C)C[C@@H]2CC[C@@H](O)[C@H](OC)C2)CC(=O)[C@H](C)/C=C(\C)[C@@H](O)[C@@H](OC)C(=O)[C@H](C)C[C@H](C)/C=C/C=C/C=C/1C [rapamycin]
- effect on PACAP-induced luciferase activity ([1]; rapamycin 20 nM, oPACAP38 10 nM, 24 hrs, n = 4): attenuated

Compound: estrogen
- effect on PRL gene transcription (PRL gene transcription): potent stimulator for PRL gene transcription

Compound: O=C(O)CN(CCOCCOCCN(CC(=O)O)CC(=O)O)CC(=O)O [EGTA]
- effect on Forskolin-induced luciferase activity ([1]; EGTA 1–4 mM, Ca^2+-free medium, 24 hrs, n = 4): suppressed dose-dependently
- effect on PACAP-induced luciferase activity ([1]; EGTA 1–4 mM, Ca^2+-free medium, oPACAP38 10 nM, 24 hrs, n = 4): suppressed dose-dependently

Compound: Clc1ccc(C(c2ccc(Cl)cc2)n2cc[n+](CC(OCc3ccc(Cl)cc3Cl)c3ccc(Cl)cc3Cl)c2)cc1 (centres unmarked) [calmidazolium]
- effect on PACAP-stimulated luciferase activity [1, 5]: suppressed/totally inhibited
- effect on basal luciferase activity [1, 6]: suppressed/totally inhibited

Compound: Oc1c2ccccc2c2c3c(cccc13)N=N2 [SP600125]
- effect on basal luciferase activity [1, 7]: not affected
- effect on PACAP-induced luciferase activity [1, 8]: not affected

Compound: O=S(=O)(NCCNC/C=C/c1ccc(Br)cc1)c1cccc2cnccc12 [H89]
- effect on basal luciferase activity [1, 9]: markedly suppressed
- effect on oPACAP38-induced luciferase activity [1, 10]: totally abolished

Compound: Nc1ncnc2c1nc(Sc1ccc(Cl)cc1)n2C1OC2COP(=O)(O)OC2C1O (centres unmarked) [cpt-cAMP, 8-(4-chlorophenylthio)-cAMP]
- effect on luciferase activity expression ([1]; 24 hrs, cpt-cAMP 1–100 μM, n = 4): dose-dependently increased

Compound: NCCc1ccc(O)c(O)c1 [Dopamine]
- effect on PRL promoter activity (PRL promoter; via dopamine D2 receptor activation): inhibitory effect on PRL promoter activity
- effect on PRL promoter activity [2]: inhibition of PRL promoter activity

Compound: NCCCCCCNS(=O)(=O)c1cccc2c(Cl)cccc12 [W7]
- effect on PACAP-stimulated luciferase activity [1, 11]: suppressed/totally inhibited
- effect on basal luciferase activity [1, 6]: suppressed/totally inhibited

Compound: thyrotropin-releasing hormone [TRH]
- effect on PRL promoter (PRL promoter; via pit-1 transactivation): stimulate PRL promoter
- effect on PRL promoter activity [2]: suppressed
- effect on PRL transcript expression [2]: suppressed

Compound: CCCCCCCCCCCCCCCCCCOCC(COP(=O)([O-])OCC[N+](C)(C)C)OC (centres unmarked) [Edelfosine]
- effect on PACAP-stimulated luciferase activity ([1]; Edelfosine 20 μM or 2-APB 100 μM, oPACAP38 10 nM, 24 hrs, n = 4): effectively abolished

Compound: COC(=O)C1=C(C)NC(C)=C(C(=O)OC)C1c1ccccc1[N+](=O)[O-] [nifedipine]
- effect on Forskolin-induced luciferase activity ([1]; nifedipine 10 μM, 24 hrs, n = 4): effective in attenuating
- effect on PACAP-induced luciferase activity ([1]; nifedipine 10 μM, oPACAP38 10 nM, 24 hrs, n = 4): effective in attenuating

Compound: COc1ccc2c(c1)CC[C@@H]1[C@@H]2CC[C@]2(C)[C@@H](NCCCCCCN3C(=O)C=CC3=O)CC[C@@H]12 [U73122]
- effect on PACAP-stimulated luciferase activity ([1]; U73122 10 μM, pre-treated 15 mins, PACAP 100 nM (Supplementary Fig. 4), 24 hours, n = 4): effectively abolished

Compound: O=c1cc(N2CCOCC2)oc2c(-c3ccccc3)cccc12 [LY294002]
- effect on basal luciferase activity [1, 12]: effective in reducing
- effect on PACAP-induced luciferase activity ([1]; LY294002 10 μM, pre-treated 15 mins, PACAP 100 nM (Supplementary Fig. 4), 24 hours, n = 4): effective in reducing

Compound: NCCOB(c1ccccc1)c1ccccc1 [2-APB, 2-aminoethoxydiphenyl borate]
- effect on PACAP-stimulated luciferase activity [1]: effectively abolished

Compound: vasoactive intestinal peptide [VIP]
- effect on PRL gene expression [3]: stimulatory effects
- effect on PRL secretion ([4]; ref 8): stimulatory effects
- effect on PRL gene expression ([4]; ref 9): stimulatory effects
- affinity/specificity at PAC1 receptors (PAC1 receptors): little/very low affinity

Compound: CN([C@@H](Cc1ccc(OS(=O)(=O)c2cccc3cnccc23)cc1)C(=O)N1CCN(c2ccccc2)CC1)S(=O)(=O)c1cccc2cnccc12 [KN62]
- effect on PACAP-stimulated luciferase activity [1, 5]: suppressed/totally inhibited
- effect on basal luciferase activity [1, 6]: suppressed/totally inhibited

Compound: PACAP6–38
- effect on oPACAP38-induced PRL promoter activity ([1]; oPACAP38 10 nM, 24 hr, antagonist PACAP6–38 100 nM (text; legend: 10 nM), n = 4): blocked

Compound: CN(C)CCCn1cc(C2=C(c3c[nH]c4ccccc34)C(=O)NC2=O)c2ccccc21 [GF109203]
- effect on PACAP-induced luciferase activity ([1]; GF109203 1 μM, oPACAP38 10 nM, 24 hrs, n = 4): not effective in altering PACAP induction

Compound: Cl.c1ccc(C2CCCC2NC2=NCCCCCCCCCCC2)cc1 (centres unmarked) [MDL12330A]
- effect on basal luciferase activity [1, 9]: markedly suppressed
- effect on oPACAP38-induced luciferase activity [1, 10]: totally abolished

Compound: NCCCCNS(=O)(=O)c1ccc2c(Cl)cccc2c1 [W13]
- effect on PACAP-stimulated luciferase activity [1, 11]: suppressed/totally inhibited
- effect on basal luciferase activity [1, 6]: suppressed/totally inhibited

Compound: COC[C@H]1OC(=O)c2coc3c2[C@@]1(C)C1=C(C3=O)[C@@H]2CCC(=O)[C@@]2(C)C[C@H]1OC(C)=O [Wortmanin]
- effect on basal luciferase activity [1, 12]: effective in reducing
- effect on PACAP-induced luciferase activity ([1]; Wortmannin 10 nM, oPACAP38 10 nM, 24 hrs, n = 4): effective in reducing

Compound: CNc1ccc2oc(C[C@H]3O[C@@]4(CC[C@H]3C)O[C@H]([C@H](C)C(=O)c3ccc[nH]3)[C@H](C)C[C@H]4C)nc2c1C(=O)O [A23187]
- effect on luciferase activity expression [1, 13]: effective in stimulating luciferase activity expression

Compound: N#CC(=C(/N)Sc1ccccc1N)/C(C#N)=C(/N)Sc1ccccc1N [U0126]
- effect on basal luciferase activity [1, 7]: not affected
- effect on PACAP-induced luciferase activity [1, 8]: not affected

Compound: COC(=O)C1=C(C)NC(C)=C([N+](=O)[O-])C1c1ccccc1C(F)(F)F (centres unmarked) [Bay K8644]
- effect on luciferase activity expression [1, 13]: effective in stimulating luciferase activity expression
